15 compounds from US12172983B2, “EGFR inhibitors” (Blueprint Medicines Corporation, priority 2019, dated 2024) can be followed below.

The target of one test is T1, EGFR (L858R T790M C797S) (Homo sapiens, UniProt P00533, C797S/L858R/T790M).
T1 construct: purchased SignalChem E10-122VG
Kind of test: Biochemical EGFR inhibition assay (Caliper mobility shift), EGFR LRTMCS mutant. The note with it: inhibitory activity against EGFR LRTMCS mutant; apparent IC50; read-out: Ext Enz LRTMCS. Put shortly: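 Kinase reactions proceed at 25° C. to 10%–20% conversion of total peptide, are terminated with 35 mM EDTA, and the phosphopeptide is resolved from substrate by electrophoretic mobility shift. Apparent IC50 values come from plotting percent activity against log compound concentration.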

Test [1] deals with phosphorylation of EGFR (Tyr1068) in NCI-H1975 cell line that harbors the EGFR L858R T790M mutations. Kind of test: NCI-H1975 pEGFR AlphaLISA assay. The note with it: 4-5 hours incubation, read-out: Ext pEGFR H1975. The format is cell-based. Put shortly: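 Phospho-EGFR Tyr1068 AlphaLISA readout: lysates taken from compound-treated H1975 cells (L858R T790M EGFR) after a 4-5 h exposure at 37 °C. Cells had adhered overnight beforehand. IC50 derived by plotting % pEGFR inhibition against log compound concentration.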
On the technique in general: Bead proximity is the source of the signal in Alpha formats.

[2] abbreviates: Homo sapiens, NCI-H1975, inhibition of phosphorylation of mutant EGFR in NCI-H1975 cells.
Setting [3] is: inhibition of phosphorylation of mutant EGFR in NCI-H1975 cells.

Read-outs that look alike come from different tables or passages of the source.

T1 sequence (P00533 25-1210 T790M/C797S/L858R): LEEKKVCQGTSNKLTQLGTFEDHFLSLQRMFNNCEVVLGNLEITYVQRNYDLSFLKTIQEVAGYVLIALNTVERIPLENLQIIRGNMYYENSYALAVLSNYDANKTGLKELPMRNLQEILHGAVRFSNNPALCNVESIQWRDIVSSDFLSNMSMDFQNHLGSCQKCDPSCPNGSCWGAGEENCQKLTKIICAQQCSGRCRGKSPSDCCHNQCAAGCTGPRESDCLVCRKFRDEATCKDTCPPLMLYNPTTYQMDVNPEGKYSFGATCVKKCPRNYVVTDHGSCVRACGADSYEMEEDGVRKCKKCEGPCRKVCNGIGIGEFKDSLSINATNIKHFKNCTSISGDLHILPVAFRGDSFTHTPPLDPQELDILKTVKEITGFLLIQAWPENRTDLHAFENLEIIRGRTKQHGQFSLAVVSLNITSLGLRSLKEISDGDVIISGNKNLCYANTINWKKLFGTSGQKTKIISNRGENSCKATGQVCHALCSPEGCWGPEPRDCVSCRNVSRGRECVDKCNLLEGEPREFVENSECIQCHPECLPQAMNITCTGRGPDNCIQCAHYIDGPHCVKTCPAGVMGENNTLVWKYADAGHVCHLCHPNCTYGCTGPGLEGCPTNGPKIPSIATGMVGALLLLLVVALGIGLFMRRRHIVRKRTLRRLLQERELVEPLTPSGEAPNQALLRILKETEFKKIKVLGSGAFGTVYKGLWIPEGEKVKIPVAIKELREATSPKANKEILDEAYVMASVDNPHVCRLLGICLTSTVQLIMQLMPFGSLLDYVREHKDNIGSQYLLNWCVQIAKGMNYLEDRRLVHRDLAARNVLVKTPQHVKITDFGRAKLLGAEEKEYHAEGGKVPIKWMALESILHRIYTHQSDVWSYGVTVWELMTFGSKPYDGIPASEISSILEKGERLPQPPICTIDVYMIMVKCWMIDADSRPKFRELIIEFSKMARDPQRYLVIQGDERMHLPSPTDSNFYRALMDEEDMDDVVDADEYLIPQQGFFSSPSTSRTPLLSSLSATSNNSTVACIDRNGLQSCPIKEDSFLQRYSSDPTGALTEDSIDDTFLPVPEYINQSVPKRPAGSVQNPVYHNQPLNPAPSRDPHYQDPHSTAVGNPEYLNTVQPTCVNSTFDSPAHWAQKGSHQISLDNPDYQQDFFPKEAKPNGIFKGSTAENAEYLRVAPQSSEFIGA

In the case of `CO[C@@H]1CCN(c2nccc(Nc3cc4c(C(C)C)nnc(N5C[C@H](CS(C)(=O)=O)[C@H]5C)c4cn3)n2)C[C@@H]1F` [Compound 150, N-(2-((3S,4R)-3-fluoro-4-methoxypiperidin-1-yl)pyrimidin-4-yl)-1-isopropyl-4-((2R,3S)-2-methyl-3-(methylsulfonylmethyl)azetidin-1-yl)pyrido[4,3-d]pyridazin-7-amine], the IC50 at EGFR (L858R T790M C797S) was ≤ 0.015 µM; in test [1] (setting [2]) it was 0.0201 to 0.03 µM.

Take `CC(C)c1cnc(N2CC([C@@H](C)S(C)(=O)=O)C2)c2cnc(Nc3ccnc(N4CC[C@@H](O)[C@@](C)(F)C4)n3)cc12` (single isomer, unassigned) [Compound 127]: the values for the IC50 (at EGFR (L858R T790M C797S); in test [1] (setting [2])) were ≤ 0.015 µM and ≤ 0.01 µM, respectively.

As for `CC(C)c1cnc(N2CC([C@H](C)S(C)(=O)=O)C2)c2cnc(Nc3ccnc(N4CC[C@@H](O)[C@@](C)(F)C4)n3)cc12` (single isomer, unassigned) [Compound 126], the IC50 at EGFR (L858R T790M C797S) was ≤ 0.015 µM; in test [1] (setting [2]), ≤ 0.01 µM.

Turning to `CC(C)c1ccc(N2C[C@H](CS(C)(=O)=O)[C@H]2C)c2cnc(Nc3ccnc(N4CC[C@](C)(O)[C@H](O)C4)n3)cc12` (single isomer, unassigned) [Compound 101, (4R)-1-[4-({8-[(2R,3S)-3-(methanesulfonylmethyl)-2-methylazetidin-1-yl]-5-(propan-2-yl)isoquinolin-3-yl}amino)pyrimidin-2-yl]-4-methylpiperidine-3,4-diol or (3S,4R)-1-[4-({8-[(2R,3S)-3-(methanesulfonylmethyl)-2-methylazetidin-1-yl]-5-(propan-2-yl)isoquinolin-3-yl}amino)pyrimidin-2-yl]-4-methylpiperidine-3,4-diol], the IC50 on EGFR (L858R T790M C797S) is ≤ 0.015 µM; in test [1] (setting [3]), 0.0101 to 0.02 µM.

For the compound `CCS(=O)(=O)C[C@H]1CN(c2cnc(C(C)C)c3cc(Nc4ccnc(N5CC[C@@](C)(O)[C@@H](F)C5)n4)ncc23)[C@@H]1C` (single isomer, unassigned) [Compound 194], the figures for the IC50 (at EGFR (L858R T790M C797S); in test [1] (setting [2])) were ≤ 0.015 µM and ≤ 0.01 µM, respectively.

For the compound `CCS(=O)(=O)C[C@H]1CN(c2ccc(C(C)C)c3cc(Nc4ccnc(N5CC[C@@H](OCCO)C(F)(F)C5)n4)ncc23)[C@@H]1C` (single isomer, unassigned) [Compound 303, 2-{[(4S)-1-[4-({8-[(2R,3S)-3-[(ethanesulfonyl)methyl]-2-methylazetidin-1-yl]-5-(propan-2-yl)isoquinolin-3-yl}amino)pyrimidin-2-yl]-3,3-difluoropiperidin-4-yl]oxy}ethan-1-ol or 2-{[(4R)-1-[4-({8-[(2R,3S)-3-[(ethanesulfonyl)methyl]-2-methylazetidin-1-yl]-5-(propan-2-yl)isoquinolin-3-yl}amino)pyrimidin-2-yl]-3,3-difluoropiperidin-4-yl]oxy}ethan-1-ol], the IC50 was 0.0151 to 0.02 µM on EGFR (L858R T790M C797S) and ≤ 0.01 µM in test [1] (setting [3]).

With `CC(C)c1ccc(N2C[C@@H](CS(C)(=O)=O)[C@@H]2C)c2cnc(Nc3ccnc(N4CC[C@@H]5C[C@H]4CO5)n3)cc12` (single isomer, unassigned) [Compound 41, N-(2-((1S,5R)-6-oxa-2-azabicyclo[3.2.1]octan-2-yl)pyrimidin-4-yl)-5-isopropyl-8-((2S,3R)-2-methyl-3-((methylsulfonyl)methyl)azetidin-1-yl)isoquinolin-3-amine or N-(2-((1R,5S)-6-oxa-2-azabicyclo[3.2.1]octan-2-yl)pyrimidin-4-yl)-5-isopropyl-8-((2S,3R)-2-methyl-3-((methylsulfonyl)methyl)azetidin-1-yl)isoquinolin-3-amine], the IC50 on EGFR (L858R T790M C797S) was ≤ 0.015 µM; in test [1] (setting [2]) it was ≤ 0.01 µM.

Regarding `CO[C@H]1CCN(c2nccc(Nc3cc4c(C(C)C)ncc(N5C[C@H](CS(C)(=O)=O)[C@H]5C)c4cn3)n2)C[C@@H]1O` (single isomer, unassigned) [Compound 104, (3S,4S)-1-(4-(5-isopropyl-8-((2R,3S)-2-methyl-3-(methylsulfonylmethyl)azetidin-1-yl)-2,6-naphthyridin-3-ylamino)pyrimidin-2-yl)-4-methoxypiperidin-3-ol or (3R,4R)-1-(4-(5-isopropyl-8-((2R,3S)-2-methyl-3-(methylsulfonylmethyl)azetidin-1-yl)-2,6-naphthyridin-3-ylamino)pyrimidin-2-yl)-4-methoxypiperidin-3-ol], the IC50 at EGFR (L858R T790M C797S) is ≤ 0.015 µM; in test [1] (setting [2]), 0.0101 to 0.02 µM.

`C[C@@H]1[C@@H](CS(C)(=O)=O)CN1c1ccc(F)c2cc(Nc3ccnc(N4CC[C@@H](O)[C@@](C)(F)C4)n3)ncc12` (single isomer, unassigned) [Compound 33]: the IC50 at EGFR (L858R T790M C797S) was ≤ 0.015 µM; in test [1] (setting [2]), ≤ 0.01 µM.

For `CC(C)c1ccc(N2C[C@H](CS(C)(=O)=O)[C@H]2C)c2cnc(Nc3ccnc(N4CC[C@H](OCCO)C(F)(F)C4)n3)cc12` (single isomer, unassigned) [Compound 252], the figures for the IC50 (at EGFR (L858R T790M C797S); in test [1] (setting [2])) were 0.0201 to 0.03 µM and ≤ 0.01 µM, respectively.

`CC(C)c1ccc(N2CC(CS(C)(=O)=O)C2)c2cnc(Nc3ccnc(N4CC[C@](C)(O)[C@H](F)C4)n3)cc12` (single isomer, unassigned) [Compound 57]: the IC50 on EGFR (L858R T790M C797S) was ≤ 0.015 µM; in test [1] (setting [2]), 0.0101 to 0.02 µM.

For `CO[C@@H]1CCN(c2nccc(Nc3cc4c(C(C)C)ccc(N5CC([C@H](CN)S(C)(=O)=O)C5)c4cn3)n2)C[C@@H]1F` (single isomer, unassigned) [Compound 193, 8-{3-[(1R)-2-amino-1-methanesulfonylethyl]azetidin-1-yl}-N-{2-[(3S,4R)-3-fluoro-4-methoxypiperidin-1-yl]pyrimidin-4-yl}-5-(propan-2-yl)isoquinolin-3-amine or 8-{3-[(1S)-2-amino-1-methanesulfonylethyl]azetidin-1-yl}-N-{2-[(3S,4R)-3-fluoro-4-methoxypiperidin-1-yl]pyrimidin-4-yl}-5-(propan-2-yl)isoquinolin-3-amine], the IC50 was ≤ 0.015 µM on EGFR (L858R T790M C797S) and ≤ 0.01 µM in test [1] (setting [2]).

On to `CO[C@@H]1CCN(c2nccc(Nc3cc4c(C(C)C)cnc(N5C[C@H](CS(C)(=O)=O)[C@H]5C)c4cn3)n2)C[C@@H]1F` [Compound 132, N-{2-[(3S,4R)-3-fluoro-4-methoxypiperidin-1-yl]pyrimidin-4-yl}-8-[(2R,3S)-3-(methanesulfonylmethyl)-2-methylazetidin-1-yl]-5-(propan-2-yl)-2,7-naphthyridin-3-amine], for which the IC50 is ≤ 0.015 µM at EGFR (L858R T790M C797S) and ≤ 0.01 µM in test [1] (setting [2]).

On to `CC(C)c1cnc(N2C[C@H](CS(C)(=O)=O)[C@H]2C)c2cnc(Nc3ccnc(N4CC[C@H](OCC(C)(C)O)[C@H](F)C4)n3)cc12` [Compound 259, 1-{[(3R,4S)-3-fluoro-1-[4-({8-[(2R,3S)-3-(methanesulfonylmethyl)-2-methylazetidin-1-yl]-5-(propan-2-yl)-2,7-naphthyridin-3-yl}amino)pyrimidin-2-yl]piperidin-4-yl]oxy}-2-methylpropan-2-ol], for which the IC50 was ≤ 0.015 µM on EGFR (L858R T790M C797S) and ≤ 0.01 µM in test [1] (setting [2]).

With `CC(C)c1ccc(N2CC(CS(C)(=O)=O)C2)c2cnc(Nc3cnnc(N4CCC5(CCO5)CC4)n3)cc12` [Compound 42, 8-[3-(methanesulfonylmethyl)azetidin-1-yl]-N-(3-{1-oxa-7-azaspiro[3.5]nonan-7-yl}-1,2,4-triazin-5-yl)-5-(propan-2-yl)isoquinolin-3-amine], the results for the IC50 (at EGFR (L858R T790M C797S); in test [1] (setting [2])) were ≤ 0.015 µM and 0.0101 to 0.02 µM, respectively.
